Drawing on patent publication US11737466B2, “Method of improving the ability of plants to resistance diseases” (National Taiwan University, priority 2019, dated 2023), this text covers zone of inhibition for one molecule.

Usually zone of inhibition stands for the size of the clear area around the sample on an inoculated plate.

The experiment has as its system Bacillus amyloliquefaciens WF02. The experiment in a line: antagonistic assay (inhibition zone) on Bacillus amyloliquefaciens WF02 plate. Format: cell-based. The settings on record: 100,000 ppm, 20 μL, 37° C., 48 hours, positive control, read-out: diameter of inhibition zone on WF02 plate. The source says: To be used as leveling agents for the biological preparation, in the embodiment of the present invention, it is necessary to confirm that the Bidens pilosa extract of the present invention without the effect of inhibiting the growth of the Bacillus amyloliquefaciens WF02 of the present invention, so antagonistic assay was used; wherein ampicillin is known with the effect on inhibiting the growth of the Bacillus amyloliquefaciens, therefore, it was used as a positive control group. First, the Bacillus amyloliquefacien WF02 of the present invention was cultured in the above method and 100 μL of a bacterial solution with an OD600 value of 0.3, which approximately contains 10^8 CFU/mL, was uniformly applied to two agarose plates (diameter 9 cm) and a plurality of circular sterile filter papers (diameter 8 mm) was placed thereon; wherein one plate was for testing the higher concentration (125,000-200,000 ppm) of the Bidens pilosa of the present invention, and the other was for the lower concentration (300-2,000 ppm). […]

On to `CC1(C)S[C@@H]2[C@H](NC(=O)[C@H](N)c3ccccc3)C(=O)N2[C@H]1C(=O)O` [ampicillin], for which the zone of inhibition at 100000 ppm was approximately 18.4 mm.
